From paper PMC7307930, “Stereoselective Activity of 1-Propargyl-4-styrylpiperidine-like Analogues That Can Discriminate between Monoamine Oxidase Isoforms A and B” (Journal of Medicinal Chemistry, 2020)
One block for each compound: values may come before it.

How the values were obtained:
[1] = system: SH-SY5Y cells; assay: LDH release, 6-OHDA-induced toxicity; details: 100 μM 6-OHDA, 24 h
[2] = biological target: T1, MAO-B (Mus musculus, UniProt Q8BW75); assay: In vitro MAO inhibition in mouse brain homogenate, benzylamine substrate; format: biochemical; details: substrate of MAO B, control mouse brain homogenates
T1 construct: Brain homogenates from male Swiss mice were first characterized in terms of their MAOs activity; from tissue; host or cells: whole brain homogenate of male Swiss mice
T1 sequence (Q8BW75 1-520): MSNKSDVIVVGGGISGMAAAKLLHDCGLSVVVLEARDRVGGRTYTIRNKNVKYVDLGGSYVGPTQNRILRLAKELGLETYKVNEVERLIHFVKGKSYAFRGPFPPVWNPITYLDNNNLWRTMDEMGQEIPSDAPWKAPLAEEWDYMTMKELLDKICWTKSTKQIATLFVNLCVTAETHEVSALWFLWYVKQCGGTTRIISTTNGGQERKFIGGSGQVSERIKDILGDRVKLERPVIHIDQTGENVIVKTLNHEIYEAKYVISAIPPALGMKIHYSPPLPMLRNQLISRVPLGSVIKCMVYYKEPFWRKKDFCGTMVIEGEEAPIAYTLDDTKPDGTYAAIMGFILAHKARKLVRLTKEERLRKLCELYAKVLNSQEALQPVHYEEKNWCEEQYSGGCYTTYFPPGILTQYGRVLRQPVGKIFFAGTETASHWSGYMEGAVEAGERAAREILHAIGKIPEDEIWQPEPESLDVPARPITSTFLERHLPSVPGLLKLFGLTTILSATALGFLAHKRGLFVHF

[3] = biological target: T2, 5-HT1A receptor (Rattus norvegicus, UniProt P19327); assay: [3H]-8-OH-DPAT radioligand binding assay, rat cortex membranes; details: [3H]-8-OH-DPAT binding, means ±SEM
T2 construct: from tissue; host or cells: rat (male Wistar) brain cortex membranes
T2 sequence (P19327 1-422): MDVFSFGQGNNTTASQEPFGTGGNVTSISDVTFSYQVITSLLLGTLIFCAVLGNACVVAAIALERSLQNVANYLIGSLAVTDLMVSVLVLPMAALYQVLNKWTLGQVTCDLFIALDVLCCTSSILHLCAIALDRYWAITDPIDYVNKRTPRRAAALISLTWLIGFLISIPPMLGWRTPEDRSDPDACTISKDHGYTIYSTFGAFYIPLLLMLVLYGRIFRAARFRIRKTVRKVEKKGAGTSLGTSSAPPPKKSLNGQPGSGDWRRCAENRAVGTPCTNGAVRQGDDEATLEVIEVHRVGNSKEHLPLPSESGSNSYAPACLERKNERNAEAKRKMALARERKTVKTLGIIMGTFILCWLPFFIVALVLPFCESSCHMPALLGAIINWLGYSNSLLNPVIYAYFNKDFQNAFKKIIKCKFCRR

[4] = system: SH-SY5Y cells; assay: MTS cytotoxicity assay; details: 24 h, 5 μM and 10 μM
[5] = biological target: T1, MAO-B; assay: Ex vivo MAO inhibition in brain homogenates of treated mice, benzylamine substrate; details: 10 days 0.3 mg/kg ip, with or without haloperidol, two-way ANOVA
[6] = system: Swiss mice; assay: Locomotor activity test; format: in vivo, mouse
[7] = system: MAO-A/B; assay: In vitro MAO inhibition in mouse brain homogenate, p-tyramine substrate; format: biochemical; details: 50 μM compound, homogenate from nontreated mice
[8] = system: Swiss mice; assay: Body mass and survival during 10-day treatment; format: in vivo; details: 0.3 mg/kg ip daily
Method: Figure S9. In vivo effects of chronic treatment on body mass. Body mass variation (Percent weight) (mean ±SEM) in mice throughout the 10-day i.p. treatment with 69 (0.3 mg/kg; n = 10), 100 (0.3 mg/kg; n = 8) and saline (SAL; n = 16). Data are means ±SEM. All animals survived the treatments.

[9] = Chemical stability and photoisomerization by proton NMR in D2O; format: physicochemical; details: hydrochloride salts, more than 1 year at room temperature protected from sunlight, 1H NMR in D2O
Method: Possible chemical instability and photoisomerization of E/Z isomers were also addressed as these are known liabilities of stilbene derivatives.[23] Proton NMRs of 69 (cis derivative), 84 (trans derivative), and 100 (ethyl analogue) in the form of hydrochloride salts were recorded in D2O (Figures S1–S3). […] The samples dissolved in the NMR tubes were then left on the benchtop exposed to natural daylight for 7 days, which could induce photoisomerization. […] Altogether, these studies imply reasonable stability of the compounds.
Figure S2. […] Compound 84 (trans isomer, […]
hydrochloride salt) was dissolved in D2O and the spectra were recorded at time 0 h, 1 h, 24 h and 7 days. Sample was exposed to day light in between the measurement, which could induce photoisomerization and potentially also chemical degradation.
The sample was previously stored at […]

[10] = biological target: T3, hMAO-A (Homo sapiens, UniProt P21397); assay: hMAO-A inhibition, HRP–Amplex Red coupled fluorimetric assay; format: biochemical; details: supplement csv; RA at 100 micromolar
T3 construct: purchased Sigma Aldrich; host or cells: baculovirus-infected insect cells (BTI-TN-5B1-4)
T3 sequence (P21397 1-527): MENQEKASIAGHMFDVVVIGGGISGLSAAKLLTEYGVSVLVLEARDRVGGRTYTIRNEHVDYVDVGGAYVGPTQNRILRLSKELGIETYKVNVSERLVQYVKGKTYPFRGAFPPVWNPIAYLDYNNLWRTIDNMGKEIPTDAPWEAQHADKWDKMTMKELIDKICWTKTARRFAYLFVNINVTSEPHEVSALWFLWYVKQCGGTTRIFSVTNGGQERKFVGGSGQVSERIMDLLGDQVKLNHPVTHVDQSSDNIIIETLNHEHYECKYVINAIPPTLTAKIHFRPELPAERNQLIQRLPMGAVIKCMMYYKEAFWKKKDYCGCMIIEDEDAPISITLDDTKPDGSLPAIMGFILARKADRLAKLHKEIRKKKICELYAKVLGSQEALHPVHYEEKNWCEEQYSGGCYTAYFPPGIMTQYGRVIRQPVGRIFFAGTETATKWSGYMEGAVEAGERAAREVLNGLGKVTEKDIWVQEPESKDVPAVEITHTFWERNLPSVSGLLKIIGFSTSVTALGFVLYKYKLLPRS

[11] = Thermodynamic solubility in PBS; format: physicochemical; details: PBS (pH 7.4), 37 °C, 24 h, hydrochloride salts
[12] = system: Swiss mice; assay: Hole–board test
[13] = system: Swiss mice; assay: Haloperidol-induced catalepsy test; format: in vivo, mouse

SMILES: NCCc1cc(O)c(O)cc1O [6-OHDA, 6-hydroxydopamine]
LDH release vs control [1]: 135%

K0.5 [2]: 0.268 ± 0.017 mM
SMILES: NCc1ccccc1 [Benzylamine]

SMILES: C#CCN1CCC(CCc2ccc(C(F)(F)F)cc2)CC1 [Compound 100, 1-(Prop-2-yn-1-yl)-4-(4-(trifluoromethyl)phenethyl)piperidine]
Ki [3]: 25.9 ± 1.5 µM | cytotoxic effects [4]: no significant cytotoxic effects | ex vivo MAO-B activity after haloperidol-induced catalepsy test [5]: decreased MAO-B activity | locomotor activity ([6]; 10 days, 0.3 mg/kg ip daily): did not affect | locomotor activities ([6]; acute ip doses of ≥10 mg/kg): reduced | residual activity, p-tyramine (0.5 mM), in vitro [7]: 59.4 ± 0.2% | body mass variations versus control mice [8]: No significant differences | chemical stability on storage [9]: no signs of chemical instability | IC50(MAO-A) class [10]: na (na-not_active(RA_at_100micromolar>50%)) | thermodynamic solubility [11]: ≥ 16.3 g/250 mL | parameters of the hole–board test ([12]; 10 days, 0.3 mg/kg ip daily): did not affect | hole–board test parameters ([12]; acute ip doses of ≥10 mg/kg): reduced | latency time to descent from the bar ([13]; 10-day i.p. 0.3 mg/kg daily): increased significantly | reversal of haloperidol-induced catalepsy ([13]; acute i.p. 3 mg/kg): did not reverse the catalepsy
